The structures appear in SMILES notation. Active and inactive are the calls of the source. No rule for the calls is given here.

Here are results for nine compounds from PubChem BioAssay AID743237 (The Scripps Research Institute Molecular Screening Center, 2013).

The test relates to Galpha16-expressing cells, calcium fluorescence, counterscreen. The test is described as follows: nonselective Ga16 antagonists, potency, late-stage follow-up, counter-screen for TAAR1 antagonist project, cell-based, fluorescence, dose response (AID 743237). A general note: Counterscreens check selectivity or assay interference.
In the case of `COc1cccc(-c2nn(-c3ccccc3)cc2C(=O)Nc2nccs2)c1`, the IC50 (in general, the concentration at which inhibition is half-maximal) was > 29.9 µM (inactive).
As to `CCCCC(=O)Nc1ccc(C(=O)Nc2ccc(S(=O)(=O)N3CCCC3)cc2)cc1`, the IC50 was > 29.9 µM (inactive).
The same measure for `COc1cc(NC(=O)c2cc3ccccc3o2)c(OC)cc1Cl`: > 29.9 µM (inactive); for `CCOC(=O)C1CCCN(c2c(C(=O)c3ccccc3)cnc3ccc(OC)cc23)C1` (centres undefined): > 29.9 µM (inactive).
`CC(=O)c1ccc(NC(=O)c2ccc(COc3ccccc3[N+](=O)[O-])o2)cc1`: the IC50 was > 29.9 µM (inactive).
As for `Cc1cccc(C(C#N)c2nc3ccccc3nc2C(F)(F)F)c1` (centres undefined), the IC50 was > 29.9 µM (inactive).
Under `Cc1coc(NC(=O)CSc2nc(-c3ccc(Cl)cc3)cc(C(F)(F)F)c2C#N)n1` stands > 29.9 µM (inactive); under `Cc1ccc(CSCC(=O)Nc2cc(S(=O)(=O)N3CCOCC3)ccc2OCC(F)(F)F)cc1`, > 29.9 µM (inactive).
With `O=C(NCCn1cc(SCc2ccccc2F)c2ccccc21)c1c(F)cccc1F`, the IC50 was > 29.9 µM (inactive).
